Measurements as given in ChEMBL document CHEMBL1671689, “Activity of ceftaroline against recent emerging serotypes of Streptococcus pneumoniae in the United States” (2010).
In brackets after ≈: the same amount, converted by molar mass.

Legend:
Format in all cases: functional
Streptococcus pneumoniae [1] = assay: Antimicrobial activity against multiple drug resistant Streptococcus pneumoniae serotype 19F by broth microdilution method
Streptococcus pneumoniae [2] = assay: Antimicrobial activity against multiple drug resistant Streptococcus pneumoniae serotype 19A by broth microdilution method
Streptococcus pneumoniae [3] = assay: Antimicrobial activity against Streptococcus pneumoniae serotype 7F by broth microdilution method
Streptococcus pneumoniae [4] = assay: Antimicrobial activity against Streptococcus pneumoniae serotype 19A by broth microdilution method
Streptococcus pneumoniae [5] = assay: Antimicrobial activity against Streptococcus pneumoniae serotype 3 by broth microdilution method
Streptococcus pneumoniae [6] = assay: Antimicrobial activity against Streptococcus pneumoniae serotype 11A by broth microdilution method
Streptococcus pneumoniae [7] = assay: Antimicrobial activity against Streptococcus pneumoniae serotype 35B by broth microdilution method
Streptococcus pneumoniae [8] = assay: Antimicrobial activity against Streptococcus pneumoniae serotype 6C by broth microdilution method
Streptococcus pneumoniae [9] = assay: Antimicrobial activity against multiple drug resistant Streptococcus pneumoniae serotype 6B by broth microdilution method
Streptococcus pneumoniae [10] = assay: Antimicrobial activity against multiple drug resistant Streptococcus pneumoniae serotype 19A assessed as percent susceptible isolates by broth microdilution method
Streptococcus pneumoniae [11] = assay: Antimicrobial activity against Streptococcus pneumoniae serotype 22F assessed as percent susceptible isolates by broth microdilution method
Streptococcus pneumoniae [12] = assay: Antimicrobial activity against Streptococcus pneumoniae serotype 3 assessed as percent susceptible isolates by broth microdilution method
Streptococcus pneumoniae [13] = assay: Antimicrobial activity against Streptococcus pneumoniae serotype 19F assessed as percent susceptible isolates by broth microdilution method
Streptococcus pneumoniae [14] = assay: Antimicrobial activity against Streptococcus pneumoniae serotype 15A assessed as percent susceptible isolates by broth microdilution method
Streptococcus pneumoniae [15] = assay: Antimicrobial activity against Streptococcus pneumoniae serotype 11A assessed as percent susceptible isolates by broth microdilution method
Streptococcus pneumoniae [16] = assay: Antimicrobial activity against Streptococcus pneumoniae serotype 6C assessed as percent susceptible isolates by broth microdilution method
Streptococcus pneumoniae [17] = assay: Antimicrobial activity against Streptococcus pneumoniae serotype 23A assessed as percent susceptible isolates by broth microdilution method
Streptococcus pneumoniae [18] = assay: Antimicrobial activity against multiple drug resistant Streptococcus pneumoniae serotype 19F assessed as percent susceptible isolates by broth microdilution method
Streptococcus pneumoniae [19] = assay: Antimicrobial activity against Streptococcus pneumoniae serotype 35B assessed as percent susceptible isolates by broth microdilution method
Streptococcus pneumoniae [20] = assay: Antimicrobial activity against Streptococcus pneumoniae serotype 7F assessed as percent susceptible isolates by broth microdilution method
Streptococcus pneumoniae [21] = assay: Antimicrobial activity against Streptococcus pneumoniae serotype 23B assessed as percent susceptible isolates by broth microdilution method
Streptococcus pneumoniae [22] = assay: Antimicrobial activity against multiple drug resistant Streptococcus pneumoniae serotype 6B assessed as percent susceptible isolates by broth microdilution method
Streptococcus pneumoniae [23] = assay: Antimicrobial activity against Streptococcus pneumoniae serotype 19A assessed as percent susceptible isolates by broth microdilution method

Compound | MIC50 (Streptococcus pneumoniae [1]) | MIC90 (Streptococcus pneumoniae [1]) | MIC (Streptococcus pneumoniae [3]) | MIC50 (Streptococcus pneumoniae [3]) | MIC90 (Streptococcus pneumoniae [3]) | MIC50 (Streptococcus pneumoniae [4]) | MIC90 (Streptococcus pneumoniae [4]) | MIC50 (Streptococcus pneumoniae [5]) | MIC90 (Streptococcus pneumoniae [5]) | MIC50 (Streptococcus pneumoniae [6]) | MIC90 (Streptococcus pneumoniae [6]) | MIC50 (Streptococcus pneumoniae [7]) | MIC90 (Streptococcus pneumoniae [7]) | MIC50 (Streptococcus pneumoniae [8]) | MIC90 (Streptococcus pneumoniae [8]) | MIC50 (Streptococcus pneumoniae [9]) | MIC90 (Streptococcus pneumoniae [9]) | Activity (Streptococcus pneumoniae [11]) | Activity (Streptococcus pneumoniae [12]) | Activity (Streptococcus pneumoniae [13]) | other results
CCO/N=C(\C(=O)N[C@@H]1C(=O)N2C(C(=O)[O-])=C(Sc3nc(-c4cc[n+](C)cc4)cs3)CS[C@H]12)c1nsc(NP(=O)(O)O)n1 [CEFTAROLINE FOSAMIL] | 0.25 µg/mL (≈ 0.365 µM) | 0.25 µg/mL (≈ 0.365 µM) | ≤ 0.008 µg/mL | ≤ 0.008 µg/mL | 0.015 µg/mL (≈ 0.0219 µM) | 0.12 µg/mL (≈ 0.175 µM) | 0.25 µg/mL (≈ 0.365 µM) | ≤ 0.008 µg/mL | ≤ 0.008 µg/mL | 0.06 µg/mL (≈ 0.0876 µM) | 0.06 µg/mL (≈ 0.0876 µM) | 0.12 µg/mL (≈ 0.175 µM) | 0.12 µg/mL (≈ 0.175 µM) | 0.015 µg/mL (≈ 0.0219 µM) | 0.06 µg/mL (≈ 0.0876 µM) | 0.25 µg/mL (≈ 0.365 µM) | 0.25 µg/mL (≈ 0.365 µM) |  |  |  | MIC50 (Streptococcus pneumoniae [2]): 0.25 µg/mL (≈ 0.365 µM); MIC90 (Streptococcus pneumoniae [2]): 0.25 µg/mL (≈ 0.365 µM); MIC (Streptococcus pneumoniae [5]): ≤ 0.008 µg/mL
CO/N=C(\C(=O)N[C@@H]1C(=O)N2C(C(=O)O)=C(CSc3nc(=O)c(O)nn3C)CS[C@H]12)c1csc(N)n1 [CEFTRIAXONE] | 2 µg/mL (≈ 3.61 µM) | 4 µg/mL (≈ 7.21 µM) | ≤ 0.25 µg/mL | ≤ 0.25 µg/mL | ≤ 0.25 µg/mL | 1 µg/mL (≈ 1.8 µM) | 2 µg/mL (≈ 3.61 µM) | ≤ 0.25 µg/mL | ≤ 0.25 µg/mL | ≤ 0.25 µg/mL | ≤ 0.25 µg/mL | 1 µg/mL (≈ 1.8 µM) | 1 µg/mL (≈ 1.8 µM) | 0.25 µg/mL (≈ 0.451 µM) | 0.25 µg/mL (≈ 0.451 µM) | 2 µg/mL (≈ 3.61 µM) | 4 µg/mL (≈ 7.21 µM) | 100% | 100% | 65.5% | Activity (Streptococcus pneumoniae [10]): 43.9%; MIC50 (Streptococcus pneumoniae [2]): 2 µg/mL (≈ 3.61 µM); MIC90 (Streptococcus pneumoniae [2]): 4 µg/mL (≈ 7.21 µM); Activity (Streptococcus pneumoniae [14]): 100%; Activity (Streptococcus pneumoniae [15]): 98%; Activity (Streptococcus pneumoniae [16]): 100%; Activity (Streptococcus pneumoniae [17]): 100%; Activity (Streptococcus pneumoniae [18]): 43.9%; MIC (Streptococcus pneumoniae [5]): ≤ 0.25 µg/mL; Activity (Streptococcus pneumoniae [19]): 98.3%; MIC (Streptococcus pneumoniae [6]): ≤ 0.25 µg/mL; Activity (Streptococcus pneumoniae [20]): 98.3%; Activity (Streptococcus pneumoniae [21]): 97%; Activity (Streptococcus pneumoniae [22]): 43.9%; Activity (Streptococcus pneumoniae [23]): 65.6%
CO/N=C(\C(=O)N[C@@H]1C(=O)N2C(C(=O)O)=C(COC(N)=O)CS[C@H]12)c1ccco1 [CEFUROXIME] | 8 µg/mL (≈ 18.9 µM) | > 8 µg/mL | ≤ 1 µg/mL | ≤ 1 µg/mL | ≤ 1 µg/mL | 8 µg/mL (≈ 18.9 µM) | > 8 µg/mL | ≤ 1 µg/mL | ≤ 1 µg/mL | ≤ 1 µg/mL | ≤ 1 µg/mL | 4 µg/mL (≈ 9.43 µM) | 4 µg/mL (≈ 9.43 µM) | 2 µg/mL (≈ 4.71 µM) | 4 µg/mL (≈ 9.43 µM) | 8 µg/mL (≈ 18.9 µM) | > 8 µg/mL | 100% | 100% | 20.7% | Activity (Streptococcus pneumoniae [10]): 0%; MIC50 (Streptococcus pneumoniae [2]): 8 µg/mL (≈ 18.9 µM); Activity (Streptococcus pneumoniae [14]): 91.4%; Activity (Streptococcus pneumoniae [15]): 95.2%; Activity (Streptococcus pneumoniae [16]): 47.5%; Activity (Streptococcus pneumoniae [17]): 96.4%; Activity (Streptococcus pneumoniae [18]): 0%; MIC (Streptococcus pneumoniae [5]): ≤ 1 µg/mL; Activity (Streptococcus pneumoniae [19]): 9.6%; MIC (Streptococcus pneumoniae [6]): ≤ 1 µg/mL; Activity (Streptococcus pneumoniae [20]): 9.6%; Activity (Streptococcus pneumoniae [21]): 96.8%; Activity (Streptococcus pneumoniae [22]): 0%; Activity (Streptococcus pneumoniae [23]): 36.1%
CCC[C@@H]1C[C@@H](C(=O)N[C@@H]([C@H]2O[C@H](SC)[C@H](O)[C@@H](O)[C@H]2O)[C@H](C)Cl)N(C)C1 [CLINDAMYCIN] | > 2 µg/mL | > 2 µg/mL | ≤ 0.25 µg/mL | ≤ 0.25 µg/mL | ≤ 0.25 µg/mL | > 2 µg/mL | > 2 µg/mL | ≤ 0.25 µg/mL | ≤ 0.25 µg/mL | ≤ 0.25 µg/mL | ≤ 0.25 µg/mL | ≤ 0.25 µg/mL | ≤ 0.25 µg/mL | ≤ 0.25 µg/mL | ≤ 0.25 µg/mL | > 2 µg/mL | > 2 µg/mL | 100% | 96.3% | 31% | Activity (Streptococcus pneumoniae [10]): 0%; MIC (Streptococcus pneumoniae [2]): > 1 µg/mL; Activity (Streptococcus pneumoniae [14]): 10.5%; Activity (Streptococcus pneumoniae [15]): 95.9%; Activity (Streptococcus pneumoniae [16]): 97.7%; Activity (Streptococcus pneumoniae [17]): 81.8%; Activity (Streptococcus pneumoniae [18]): 0%; Activity (Streptococcus pneumoniae [19]): 100%; MIC (Streptococcus pneumoniae [7]): ≤ 0.25 µg/mL; Activity (Streptococcus pneumoniae [20]): 100%; Activity (Streptococcus pneumoniae [21]): 100%; Activity (Streptococcus pneumoniae [22]): 0%; Activity (Streptococcus pneumoniae [23]): 43.4%
CC(=O)NC[C@H]1CN(c2ccc(N3CCOCC3)c(F)c2)C(=O)O1 [LINEZOLID] | 0.5 µg/mL (≈ 1.48 µM) | 1 µg/mL (≈ 2.96 µM) |  | 0.5 µg/mL (≈ 1.48 µM) | 1 µg/mL (≈ 2.96 µM) | 0.5 µg/mL (≈ 1.48 µM) | 1 µg/mL (≈ 2.96 µM) | 0.5 µg/mL (≈ 1.48 µM) | 1 µg/mL (≈ 2.96 µM) | 1 µg/mL (≈ 2.96 µM) | 1 µg/mL (≈ 2.96 µM) | 1 µg/mL (≈ 2.96 µM) | 1 µg/mL (≈ 2.96 µM) | 1 µg/mL (≈ 2.96 µM) | 1 µg/mL (≈ 2.96 µM) | 0.5 µg/mL (≈ 1.48 µM) | 1 µg/mL (≈ 2.96 µM) | 100% | 100% | 100% | MIC50 (Streptococcus pneumoniae [2]): 0.5 µg/mL (≈ 1.48 µM); MIC90 (Streptococcus pneumoniae [2]): 1 µg/mL (≈ 2.96 µM); Activity (Streptococcus pneumoniae [14]): 100%; Activity (Streptococcus pneumoniae [15]): 100%; Activity (Streptococcus pneumoniae [16]): 100%; Activity (Streptococcus pneumoniae [17]): 100%; Activity (Streptococcus pneumoniae [19]): 100%; Activity (Streptococcus pneumoniae [20]): 100%; Activity (Streptococcus pneumoniae [21]): 100%; Activity (Streptococcus pneumoniae [23]): 100%
COc1c(N2C[C@@H]3CCCN[C@@H]3C2)c(F)cc2c(=O)c(C(=O)O)cn(C3CC3)c12 [MOXIFLOXACIN] |  |  | ≤ 0.5 µg/mL | ≤ 0.5 µg/mL | ≤ 0.5 µg/mL | ≤ 0.5 µg/mL | ≤ 0.5 µg/mL | ≤ 0.5 µg/mL | ≤ 0.5 µg/mL | ≤ 0.5 µg/mL | ≤ 0.5 µg/mL | ≤ 0.5 µg/mL | ≤ 0.5 µg/mL | ≤ 0.5 µg/mL | ≤ 0.5 µg/mL |  |  | 100% | 100% | 96.6% | Activity (Streptococcus pneumoniae [10]): 99.2%; MIC (Streptococcus pneumoniae [4]): ≤ 0.5 µg/mL; Activity (Streptococcus pneumoniae [14]): 100%; Activity (Streptococcus pneumoniae [15]): 100%; Activity (Streptococcus pneumoniae [16]): 100%; Activity (Streptococcus pneumoniae [17]): 100%; Activity (Streptococcus pneumoniae [18]): 99.2%; MIC (Streptococcus pneumoniae [5]): ≤ 0.5 µg/mL; Activity (Streptococcus pneumoniae [19]): 100%; MIC (Streptococcus pneumoniae [6]): ≤ 0.5 µg/mL; MIC (Streptococcus pneumoniae [7]): ≤ 0.5 µg/mL; MIC (Streptococcus pneumoniae [8]): ≤ 0.5 µg/mL; Activity (Streptococcus pneumoniae [20]): 100%; Activity (Streptococcus pneumoniae [21]): 97%; Activity (Streptococcus pneumoniae [22]): 99.2%; Activity (Streptococcus pneumoniae [23]): 100%
